Results from patent US8741963B2, “S1P receptor modulators for treating multiple sclerosis” (Novartis AG, priority 2006, dated 2014).

Test system: Relapsing Experimental Autoimmune Encephalomyelitis (EAE)
Assay: Relapsing Experimental Autoimmune Encephalomyelitis (EAE), vascular casts quantitated by micro computer tomography
Assay type: in vivo, female Lewis rats
Details: rat relapsing EAE
Excerpt: In Vivo: Relapsing Experimental Autoimmune Encephalomyelitis (EAE)
Disease is induced in female Lewis rats by immunization with guinea pig spinal cord tissue emulsified in complete Freund's adjuvant. […] On day 26 rats are thoracectomized after having been deeply anesthetized with Isoflurane (3%, 20 L/min) and perfused through the left ventricle of the heart. The left ventricle is punctured with a 19 gauge needle from a winged infusion set (SV-19BLK; Termudo, Elkton, Md.), which is connected to an airtight pressurized syringe containing the rinsing solution (NaCl 0.9% with 250,000 U/I heparin at 35° C.). The right atrium is punctured to provide outflow, and the perfusate is infused under a precise controlled pressure of 120 mm Hg. The perfusion is continued for 5 min (at a constant rate of 20 ml/min) followed by a pre-fixation solution (2% performaldehyde in PBS at 35° C.). Finally, up to 30 ml of polyurethane resin (PUII4; Vasqtec, Zürich, Switzerland) is infused at the same rate. After 48 h, the resin-filled brain and spinal cord are excised from the animal and the soft tissue removed by maceration in 7.5% KOH during 24 hr at 50° C. The casts are then thoroughly cleaned with and stored in distilled water before drying by lyophilization. These vascular casts are quantitated using micro computer tomography.

[1] = hydrochloride salt form, daily 0.3 mg/kg p.o.

CCCCCCCCc1ccc(CCC(N)(CO)CO)cc1.Cl [Compound A, 2-amino-2-[2-(4-octylphenyl)ethyl]propane-1,3-diol]
disease-associated neo-angiogenesis (dose of from 0.1 to 20 mg/kg p.o.): significantly blocks
disease-associated angiogenesis [1]: fully blocks
relapse phases [1]: completely inhibits
effect on disease-associated angiogenesis and relapse phases, intermittent administration (hydrochloride salt form, p.o. 0.3 mg/kg every 2nd or 3rd day or once a week): The same effect is obtained
